Test results published in patent US5300491A, “Treatment of protozoal infection” (priority 1992, dated 1994).
Where two headings read alike, the source gives them in different places. Bridge positions count the residues as written; N and C are the ends. Square brackets hold non-standard residues; d marks the D form. Peptide text beside a SMILES is read from it. * marks the point of attachment. Ileψ(thiazoline)Cys = CC[C@H](C)[C@H](N)C1=N[C@H](C(=O)*)CS1; dOrn = NCCC[C@@H](N)C(=O)O

Tested on: Entamoeba histolytica
Type: cell-based
From the text: E. histolytica isolates representing three distinct zymodemes (I, II or XIV) were derived from a range of geographical locations. The patients from whom the isolates were obtained were either pathogenic (i.e. presented dysentery), or non-pathogenic (i.e., presented a non-dysenteric stage of infection characterized by passing of cysts or trophozoites). The following table identifies the E. histolytica isolates in accordance with the above criteria:
Each isolate was a xenic culture, i.e., it contained, in addition to the E. histolytica amoeba, the normally occurring patient faecal microflora. The cultures were maintained according to the method of Robinson, Trans. Roy. Soc. Trop. Med. Hyg. 62, 285-94, (1968). Bacitracin (70 I.U./mg) and its zinc salt (65 I.U./mg) were obtained from Apothekernes Laboratorium A.S (Oslo, Norway). Following microtitre-assay standardization and pilot testing of the drugs (results not presented), the following assay procedure was established. Bacitracin was screened over the range of 20.0-0.625 mg/ml by doubling dilution. 30 mg/ml bacitracin was also examined. […] The remaining wells were run as controls. An initial stock solution of 75 mg/ml bacitracin was prepared in starch-free Robinson medium (SFRM) . Subsequent to loading the first set of wells, the stock was diluted with SFRM to 50 mg/ml, which was used to prepare the remaining concentrations. […] 100 μl volumes of both drugs were then double-diluted in SFRM to provide 2.5X concentrates of the required final concentrations in the microtitre plates. 50 μl of a 25 mg% starch (BDH) solution (in SFRM) was then added to each well. 16-18 hours before the end of the required 48-hour culture period, the amoeba isolates were passaged to fresh tubes containing starch-free Robinson medium. At the end of the culture period, the amoebae were harvested in a small volume of medium and resuspended in at least 20 volumes SFRM. The suspensions were centrifuged at 1000 rpm for 5 minutes prior to re-suspension in fresh medium and counted in a modified Neubauer chamber. Amoebae were centrifuged as before and the pellet resuspended to a concentration of 2.5×10^4 /ml SFRM. 100 μl aliquots were then pipetted into respective wells to provide duplicate cultures of each isolate for each concentration assayed. The plates were then placed in an anaerobic chamber (HP11, Oxoid) at 37° C. for 24 hours. While this procedure provided sufficient starch for the amoebae, the concentration was such that at 24 hours the plates were easily read and quantitified by direct observation using an inverted microscope. Viability was assessed by the addition of Trypan blue to a final concentration of 0.1%.
Readings from each of the studies were collected and stored until all three experiments were completed in order to reduce any bias in subsequent readings. Minimun inhibitory and minimum lethal concentrations were given in mg/ml. […]

[1] = xenic isolate 70k, Experiment 1
[2] = xenic isolate 70k, Experiment 2
[3] = xenic isolate 70k, Experiment 3
[4] = xenic isolate 116k, Experiment 1
[5] = xenic isolate 116k, Experiment 2
[6] = xenic isolate 116k, Experiment 3
[7] = xenic isolate 418, Experiment 1
[8] = xenic isolate 418, Experiment 2
[9] = xenic isolate 418, Experiment 3
[10] = xenic isolate 1246, Experiment 1
[11] = xenic isolate 1246, Experiment 2
[12] = xenic isolate 1246, Experiment 3
[13] = xenic isolate AiDO, Experiment 1
[14] = xenic isolate AiDO, Experiment 2
[15] = xenic isolate AiDO, Experiment 3
[16] = xenic isolate BiLO, Experiment 1
[17] = xenic isolate BiLO, Experiment 3
[18] = xenic isolate DOGO, Experiment 1
[19] = xenic isolate DOGO, Experiment 2
[20] = xenic isolate DOGO, Experiment 3
[21] = xenic isolate OMAk, Experiment 1
[22] = xenic isolate OMAk, Experiment 3
[23] = xenic isolate Sh2, Experiment 2
[24] = xenic isolate Sh2, Experiment 3
[25] = xenic isolate T2k, Experiment 1
[26] = xenic isolate T2k, Experiment 2
[27] = xenic isolate T2k, Experiment 3
[28] = xenic isolate URU1, Experiment 1
[29] = xenic isolate URU1, Experiment 2
[30] = xenic isolate URU1, Experiment 3
[31] = xenic isolate URU19, Experiment 1

CC[C@H](C)[C@H](N)C1=N[C@H](C(=O)N[C@@H](CC(C)C)C(=O)N[C@H](CCC(=O)O)C(=O)N[C@H](C(=O)N[C@H]2CCCCNC(=O)[C@H](CC(N)=O)NC(=O)[C@@H](CC(=O)O)NC(=O)[C@H](Cc3cnc[nH]3)NC(=O)[C@@H](Cc3ccccc3)NC(=O)[C@H]([C@@H](C)CC)NC(=O)[C@@H](CCCN)NC2=O)[C@@H](C)CC)CS1 [Bacitracin, reference compound] ({Ileψ(thiazoline)Cys}-L[dE]IK[dOrn]I[dF]H[dD]N; lactam 4-C)
MICs (span over all xenic isolates and studies): 0.63 to 10.0 mg/mL | Minimum Lethal Concentration (MLC) (xenic Isolate 1, single study over a narrower range of drug concentration (Table 4)): 21 mg/mL | Minimum Lethal Concentration (MLC) (xenic Isolate C1, single study over a narrower range of drug concentration (Table 4)): 24 mg/mL | Minimum Inhibitory Concentration (MIC) (xenic isolate 1, Experiment 1): 5.0 mg/mL | Minimum Lethal Concentration (MLC) (xenic isolate 1, Experiment 1): 30.0 mg/mL | Minimum Inhibitory Concentration (MIC) (xenic isolate 1, Experiment 2): 10.0 mg/mL | Minimum Lethal Concentration (MLC) (xenic isolate 1, Experiment 2): 30.0 mg/mL | Minimum Inhibitory Concentration (MIC) (xenic isolate 1, Experiment 3): 5.0 mg/mL | Minimum Lethal Concentration (MLC) (xenic isolate 1, Experiment 3): 30.0 mg/mL | Minimum Inhibitory Concentration (MIC) [1]: 5.0 mg/mL | Minimum Lethal Concentration (MLC) [1]: 30.0 mg/mL | Minimum Inhibitory Concentration (MIC) [2]: 5.0 mg/mL | Minimum Lethal Concentration (MLC) [2]: 20.0 mg/mL | Minimum Inhibitory Concentration (MIC) [3]: 10.0 mg/mL | Minimum Lethal Concentration (MLC) [3]: 30.0 mg/mL | Minimum Inhibitory Concentration (MIC) [4]: 10.0 mg/mL | Minimum Lethal Concentration (MLC) [4]: 30.0 mg/mL | Minimum Inhibitory Concentration (MIC) [5]: 1.25 mg/mL | Minimum Lethal Concentration (MLC) [5]: 30.0 mg/mL | Minimum Inhibitory Concentration (MIC) [6]: 1.25 mg/mL | Minimum Lethal Concentration (MLC) [6]: 30.0 mg/mL | Minimum Inhibitory Concentration (MIC) [7]: 5.0 mg/mL | Minimum Lethal Concentration (MLC) [7]: 30.0 mg/mL | Minimum Inhibitory Concentration (MIC) [8]: 0.63 mg/mL | Minimum Lethal Concentration (MLC) [8]: 20.0 mg/mL | Minimum Inhibitory Concentration (MIC) [9]: 0.63 mg/mL | Minimum Lethal Concentration (MLC) [9]: 20.0 mg/mL | Minimum Inhibitory Concentration (MIC) [10]: 2.5 mg/mL | Minimum Lethal Concentration (MLC) [10]: 30.0 mg/mL | Minimum Inhibitory Concentration (MIC) [11]: 10.0 mg/mL | Minimum Lethal Concentration (MLC) [11]: 20.0 mg/mL | Minimum Inhibitory Concentration (MIC) [12]: 0.63 mg/mL | Minimum Lethal Concentration (MLC) [12]: 20.0 mg/mL | Minimum Inhibitory Concentration (MIC) [13]: 10.0 mg/mL | Minimum Lethal Concentration (MLC) [13]: 30.0 mg/mL | Minimum Inhibitory Concentration (MIC) [14]: 2.5 mg/mL | Minimum Lethal Concentration (MLC) [14]: 30.0 mg/mL | Minimum Inhibitory Concentration (MIC) [15]: 2.5 mg/mL | Minimum Lethal Concentration (MLC) [15]: 30.0 mg/mL | Minimum Inhibitory Concentration (MIC) [16]: 5.0 mg/mL | Minimum Lethal Concentration (MLC) [16]: 30.0 mg/mL | Minimum Inhibitory Concentration (MIC) [17]: 1.25 mg/mL | Minimum Lethal Concentration (MLC) [17]: 20.0 mg/mL | Minimum Inhibitory Concentration (MIC) (xenic isolate C1, Experiment 1): 10.0 mg/mL | Minimum Lethal Concentration (MLC) (xenic isolate C1, Experiment 1): 30.0 mg/mL | Minimum Inhibitory Concentration (MIC) (xenic isolate C1, Experiment 2): 5.0 mg/mL | Minimum Lethal Concentration (MLC) (xenic isolate C1, Experiment 2): 20.0 mg/mL | Minimum Inhibitory Concentration (MIC) (xenic isolate C1, Experiment 3): 1.25 mg/mL | Minimum Lethal Concentration (MLC) (xenic isolate C1, Experiment 3): 20.0 mg/mL | Minimum Inhibitory Concentration (MIC) (xenic isolate C2, Experiment 1): 2.5 mg/mL | Minimum Lethal Concentration (MLC) (xenic isolate C2, Experiment 1): 30.0 mg/mL | Minimum Inhibitory Concentration (MIC) (xenic isolate C2, Experiment 2): 5.0 mg/mL | Minimum Lethal Concentration (MLC) (xenic isolate C2, Experiment 2): 20.0 mg/mL | Minimum Inhibitory Concentration (MIC) (xenic isolate C2, Experiment 3): 2.5 mg/mL | Minimum Lethal Concentration (MLC) (xenic isolate C2, Experiment 3): 30.0 mg/mL | Minimum Inhibitory Concentration (MIC) (xenic isolate DA, Experiment 1): 2.5 mg/mL | Minimum Lethal Concentration (MLC) (xenic isolate DA, Experiment 1): 30.0 mg/mL | Minimum Inhibitory Concentration (MIC) (xenic isolate DA, Experiment 2): 5.0 mg/mL | Minimum Lethal Concentration (MLC) (xenic isolate DA, Experiment 2): 30.0 mg/mL | Minimum Inhibitory Concentration (MIC) (xenic isolate DA, Experiment 3): 0.63 mg/mL | Minimum Lethal Concentration (MLC) (xenic isolate DA, Experiment 3): 20.0 mg/mL | Minimum Inhibitory Concentration (MIC) [18]: 2.5 mg/mL | Minimum Lethal Concentration (MLC) [18]: 30.0 mg/mL | Minimum Inhibitory Concentration (MIC) [19]: 2.5 mg/mL | Minimum Lethal Concentration (MLC) [19]: 20.0 mg/mL | Minimum Inhibitory Concentration (MIC) [20]: 0.63 mg/mL | Minimum Lethal Concentration (MLC) [20]: 10.0 mg/mL | Minimum Inhibitory Concentration (MIC) (xenic isolate GS, Experiment 1): 2.5 mg/mL | Minimum Lethal Concentration (MLC) (xenic isolate GS, Experiment 1): 30.0 mg/mL | Minimum Inhibitory Concentration (MIC) (xenic isolate GS, Experiment 2): 1.25 mg/mL | Minimum Lethal Concentration (MLC) (xenic isolate GS, Experiment 2): 20.0 mg/mL | Minimum Inhibitory Concentration (MIC) (xenic isolate GS, Experiment 3): 0.63 mg/mL | Minimum Lethal Concentration (MLC) (xenic isolate GS, Experiment 3): 30.0 mg/mL | Minimum Inhibitory Concentration (MIC) (xenic isolate MS, Experiment 1): 5.0 mg/mL | Minimum Lethal Concentration (MLC) (xenic isolate MS, Experiment 1): 30.0 mg/mL | Minimum Inhibitory Concentration (MIC) (xenic isolate MS, Experiment 2): 2.5 mg/mL | Minimum Lethal Concentration (MLC) (xenic isolate MS, Experiment 2): 20.0 mg/mL | Minimum Inhibitory Concentration (MIC) (xenic isolate MS, Experiment 3): 1.25 mg/mL | Minimum Lethal Concentration (MLC) (xenic isolate MS, Experiment 3): 20.0 mg/mL | Minimum Inhibitory Concentration (MIC) [21]: 2.5 mg/mL | Minimum Lethal Concentration (MLC) [21]: 30.0 mg/mL | Minimum Inhibitory Concentration (MIC) [22]: 1.25 mg/mL | Minimum Lethal Concentration (MLC) [22]: 30.0 mg/mL | Minimum Inhibitory Concentration (MIC) (xenic isolate SI, Experiment 1): 2.5 mg/mL | Minimum Lethal Concentration (MLC) (xenic isolate SI, Experiment 1): 30.0 mg/mL | Minimum Inhibitory Concentration (MIC) (xenic isolate SI, Experiment 3): 2.5 mg/mL | Minimum Lethal Concentration (MLC) (xenic isolate SI, Experiment 3): 20.0 mg/mL | Minimum Inhibitory Concentration (MIC) [23]: 5.0 mg/mL | Minimum Lethal Concentration (MLC) [23]: 20.0 mg/mL | Minimum Inhibitory Concentration (MIC) [24]: 2.5 mg/mL | Minimum Lethal Concentration (MLC) [24]: 30.0 mg/mL | Minimum Inhibitory Concentration (MIC) [25]: 2.5 mg/mL | Minimum Lethal Concentration (MLC) [25]: 30.0 mg/mL | Minimum Inhibitory Concentration (MIC) [26]: 2.5 mg/mL | Minimum Lethal Concentration (MLC) [26]: 30.0 mg/mL | Minimum Inhibitory Concentration (MIC) [27]: 0.63 mg/mL | Minimum Lethal Concentration (MLC) [27]: 30.0 mg/mL | Minimum Inhibitory Concentration (MIC) (xenic isolate T4, Experiment 1): 5.0 mg/mL | Minimum Lethal Concentration (MLC) (xenic isolate T4, Experiment 1): 30.0 mg/mL | Minimum Inhibitory Concentration (MIC) (xenic isolate T4, Experiment 2): 2.5 mg/mL | Minimum Lethal Concentration (MLC) (xenic isolate T4, Experiment 2): 30.0 mg/mL | Minimum Inhibitory Concentration (MIC) (xenic isolate T4, Experiment 3): 0.63 mg/mL | Minimum Lethal Concentration (MLC) (xenic isolate T4, Experiment 3): 30.0 mg/mL | Minimum Inhibitory Concentration (MIC) (xenic isolate T6, Experiment 1): 2.5 mg/mL | Minimum Lethal Concentration (MLC) (xenic isolate T6, Experiment 1): 30.0 mg/mL | Minimum Inhibitory Concentration (MIC) (xenic isolate T6, Experiment 2): 2.5 mg/mL | Minimum Lethal Concentration (MLC) (xenic isolate T6, Experiment 2): 20.0 mg/mL | Minimum Inhibitory Concentration (MIC) (xenic isolate T6, Experiment 3): 2.5 mg/mL | Minimum Lethal Concentration (MLC) (xenic isolate T6, Experiment 3): 20.0 mg/mL | Minimum Inhibitory Concentration (MIC) [28]: 2.5 mg/mL | Minimum Lethal Concentration (MLC) [28]: 30.0 mg/mL | Minimum Inhibitory Concentration (MIC) [29]: 2.5 mg/mL | Minimum Lethal Concentration (MLC) [29]: 20.0 mg/mL | Minimum Inhibitory Concentration (MIC) [30]: 1.25 mg/mL | Minimum Lethal Concentration (MLC) [30]: 30.0 mg/mL | Minimum Inhibitory Concentration (MIC) [31]: 2.5 mg/mL | Minimum Lethal Concentration (MLC) [31]: 30.0 mg/mL
